Measured values from ChEMBL document CHEMBL3421558, “Structure activity relationship of substituted 1,5-naphthyridine analogs of oxabicyclooctane-linked novel bacterial topoisomerase inhibitors as broad-spectrum antibacterial agents (Part-4)” (Bioorg Med Chem Lett, 2015).
≈ marks a conversion by molar mass, not a printed value.

Test system: Escherichia coli
Assay: Antimicrobial activity against Escherichia coli ATCC 25922 by micro broth dilution or agar based method
Assay type: functional
Conditions: Escherichia coli, ATCC 25922; read-out: MIC

Structure (SMILES)	MIC [mg/L]
COc1ccc2ncc(F)c(CCC34CCC(NCc5ccc6c(n5)NC(=O)CO6)(CC3)CO4)c2n1	1 (≈ 2.03 µM)
COc1cc(CCC23CCC(NCc4ccc5c(n4)NC(=O)CO5)(CC2)CO3)c2nc(OC)ccc2n1	8 (≈ 15.8 µM)
O=C1COc2ccc(CNC34CCC(CCc5c(F)cnc6cc(Cl)cnc56)(CC3)OC4)nc2N1	32 (≈ 64.3 µM)
O=C1COc2ccc(CNC34CCC(CCc5c(F)cnc6ccc(N7CCOCC7)nc56)(CC3)OC4)nc2N1	16 (≈ 29.2 µM)
O=C1COc2ccc(CNC34CCC(CCc5ccnc6cc(F)cnc56)(CC3)OC4)nc2N1	32 (≈ 69 µM)
COc1ccc2ncc(OC)c(CCC34CCC(NCc5ccc6c(n5)NC(=O)CO6)(CC3)CO4)c2n1	16 (≈ 31.6 µM)
N#Cc1ccc2ncc(F)c(CCC34CCC(NCc5ccc6c(n5)NC(=O)CO6)(CC3)CO4)c2n1	2 (≈ 4.09 µM)

Test system: Streptococcus pneumoniae
Assay: Antimicrobial activity against Streptococcus pneumoniae IID553 by micro broth dilution or agar based method
Assay type: functional
Conditions: Streptococcus pneumoniae, IID553; read-out: MIC

Structure (SMILES)	MIC [mg/L]
COc1ccc2ncc(F)c(CCC34CCC(NCc5ccc6c(n5)NC(=O)CO6)(CC3)CO4)c2n1	0.125 (≈ 0.253 µM)
COc1cc(CCC23CCC(NCc4ccc5c(n4)NC(=O)CO5)(CC2)CO3)c2nc(OC)ccc2n1	8 (≈ 15.8 µM)
O=C1COc2ccc(CNC34CCC(CCc5c(F)cnc6cc(Cl)cnc56)(CC3)OC4)nc2N1	32 (≈ 64.3 µM)
O=C1COc2ccc(CNC34CCC(CCc5c(F)cnc6ccc(N7CCOCC7)nc56)(CC3)OC4)nc2N1	4 (≈ 7.29 µM)
O=C1COc2ccc(CNC34CCC(CCc5ccnc6cc(F)cnc56)(CC3)OC4)nc2N1	32 (≈ 69 µM)
COc1ccc2ncc(OC)c(CCC34CCC(NCc5ccc6c(n5)NC(=O)CO6)(CC3)CO4)c2n1	4 (≈ 7.91 µM)
N#Cc1ccc2ncc(F)c(CCC34CCC(NCc5ccc6c(n5)NC(=O)CO6)(CC3)CO4)c2n1	1 (≈ 2.05 µM)

Test system: Staphylococcus aureus
Assay: Antimicrobial activity against methicillin-resistant Staphylococcus aureus OIT971 by micro broth dilution or agar based method
Assay type: functional
Conditions: not given

Structure (SMILES)	MIC [mg/L]
COc1ccc2ncc(F)c(CCC34CCC(NCc5ccc6c(n5)NC(=O)CO6)(CC3)CO4)c2n1	0.008 (≈ 0.0162 µM)
COc1cc(CCC23CCC(NCc4ccc5c(n4)NC(=O)CO5)(CC2)CO3)c2nc(OC)ccc2n1	1 (≈ 1.98 µM)
O=C1COc2ccc(CNC34CCC(CCc5c(F)cnc6cc(Cl)cnc56)(CC3)OC4)nc2N1	8 (≈ 16.1 µM)
O=C1COc2ccc(CNC34CCC(CCc5c(F)cnc6ccc(N7CCOCC7)nc56)(CC3)OC4)nc2N1	0.25 (≈ 0.456 µM)
O=C1COc2ccc(CNC34CCC(CCc5ccnc6cc(F)cnc56)(CC3)OC4)nc2N1	8 (≈ 17.3 µM)
COc1ccc2ncc(OC)c(CCC34CCC(NCc5ccc6c(n5)NC(=O)CO6)(CC3)CO4)c2n1	0.063 (≈ 0.125 µM)
N#Cc1ccc2ncc(F)c(CCC34CCC(NCc5ccc6c(n5)NC(=O)CO6)(CC3)CO4)c2n1	0.063 (≈ 0.129 µM)

Test system: not listed separately
Assay: Oral bioavailability in C57BL/6 mouse at 10 mg/kg
Assay type: ADME, organism-based
Conditions: in vivo

Structure (SMILES)	bioavailability [%]
COc1ccc2ncc(F)c(CCC34CCC(NCc5ccc6c(n5)NC(=O)CO6)(CC3)CO4)c2n1	71

Test system: Acinetobacter baumannii
Assay: Antimicrobial activity against Acinetobacter baumannii IID876 by micro broth dilution or agar based method
Assay type: functional
Conditions: Acinetobacter baumannii, IID876; read-out: MIC

Structure (SMILES)	MIC [mg/L]
COc1ccc2ncc(F)c(CCC34CCC(NCc5ccc6c(n5)NC(=O)CO6)(CC3)CO4)c2n1	0.5 (≈ 1.01 µM)
COc1cc(CCC23CCC(NCc4ccc5c(n4)NC(=O)CO5)(CC2)CO3)c2nc(OC)ccc2n1	8 (≈ 15.8 µM)
O=C1COc2ccc(CNC34CCC(CCc5c(F)cnc6cc(Cl)cnc56)(CC3)OC4)nc2N1	32 (≈ 64.3 µM)
O=C1COc2ccc(CNC34CCC(CCc5c(F)cnc6ccc(N7CCOCC7)nc56)(CC3)OC4)nc2N1	16 (≈ 29.2 µM)
O=C1COc2ccc(CNC34CCC(CCc5ccnc6cc(F)cnc56)(CC3)OC4)nc2N1	16 (≈ 34.5 µM)
COc1ccc2ncc(OC)c(CCC34CCC(NCc5ccc6c(n5)NC(=O)CO6)(CC3)CO4)c2n1	8 (≈ 15.8 µM)
N#Cc1ccc2ncc(F)c(CCC34CCC(NCc5ccc6c(n5)NC(=O)CO6)(CC3)CO4)c2n1	1 (≈ 2.05 µM)

Test system: Pseudomonas aeruginosa
Assay: Antimicrobial activity against Pseudomonas aeruginosa PAO1 by micro broth dilution or agar based method
Assay type: functional
Conditions: Pseudomonas aeruginosa, PAO1; read-out: MIC

Structure (SMILES)	MIC [mg/L]
COc1ccc2ncc(F)c(CCC34CCC(NCc5ccc6c(n5)NC(=O)CO6)(CC3)CO4)c2n1	4 (≈ 8.1 µM)
COc1cc(CCC23CCC(NCc4ccc5c(n4)NC(=O)CO5)(CC2)CO3)c2nc(OC)ccc2n1	8 (≈ 15.8 µM)
O=C1COc2ccc(CNC34CCC(CCc5c(F)cnc6cc(Cl)cnc56)(CC3)OC4)nc2N1	32 (≈ 64.3 µM)
O=C1COc2ccc(CNC34CCC(CCc5c(F)cnc6ccc(N7CCOCC7)nc56)(CC3)OC4)nc2N1	16 (≈ 29.2 µM)
O=C1COc2ccc(CNC34CCC(CCc5ccnc6cc(F)cnc56)(CC3)OC4)nc2N1	32 (≈ 69 µM)
COc1ccc2ncc(OC)c(CCC34CCC(NCc5ccc6c(n5)NC(=O)CO6)(CC3)CO4)c2n1	64 (≈ 127 µM)
N#Cc1ccc2ncc(F)c(CCC34CCC(NCc5ccc6c(n5)NC(=O)CO6)(CC3)CO4)c2n1	8 (≈ 16.4 µM)

Target: Voltage-gated inwardly rectifying potassium channel KCNH2 (Homo sapiens, UniProt Q12809)
Assay: Inhibition of MK499 binding to human ERG
Conditions: not given

Voltage-gated inwardly rectifying potassium channel KCNH2, sequence (Q12809 whole entry): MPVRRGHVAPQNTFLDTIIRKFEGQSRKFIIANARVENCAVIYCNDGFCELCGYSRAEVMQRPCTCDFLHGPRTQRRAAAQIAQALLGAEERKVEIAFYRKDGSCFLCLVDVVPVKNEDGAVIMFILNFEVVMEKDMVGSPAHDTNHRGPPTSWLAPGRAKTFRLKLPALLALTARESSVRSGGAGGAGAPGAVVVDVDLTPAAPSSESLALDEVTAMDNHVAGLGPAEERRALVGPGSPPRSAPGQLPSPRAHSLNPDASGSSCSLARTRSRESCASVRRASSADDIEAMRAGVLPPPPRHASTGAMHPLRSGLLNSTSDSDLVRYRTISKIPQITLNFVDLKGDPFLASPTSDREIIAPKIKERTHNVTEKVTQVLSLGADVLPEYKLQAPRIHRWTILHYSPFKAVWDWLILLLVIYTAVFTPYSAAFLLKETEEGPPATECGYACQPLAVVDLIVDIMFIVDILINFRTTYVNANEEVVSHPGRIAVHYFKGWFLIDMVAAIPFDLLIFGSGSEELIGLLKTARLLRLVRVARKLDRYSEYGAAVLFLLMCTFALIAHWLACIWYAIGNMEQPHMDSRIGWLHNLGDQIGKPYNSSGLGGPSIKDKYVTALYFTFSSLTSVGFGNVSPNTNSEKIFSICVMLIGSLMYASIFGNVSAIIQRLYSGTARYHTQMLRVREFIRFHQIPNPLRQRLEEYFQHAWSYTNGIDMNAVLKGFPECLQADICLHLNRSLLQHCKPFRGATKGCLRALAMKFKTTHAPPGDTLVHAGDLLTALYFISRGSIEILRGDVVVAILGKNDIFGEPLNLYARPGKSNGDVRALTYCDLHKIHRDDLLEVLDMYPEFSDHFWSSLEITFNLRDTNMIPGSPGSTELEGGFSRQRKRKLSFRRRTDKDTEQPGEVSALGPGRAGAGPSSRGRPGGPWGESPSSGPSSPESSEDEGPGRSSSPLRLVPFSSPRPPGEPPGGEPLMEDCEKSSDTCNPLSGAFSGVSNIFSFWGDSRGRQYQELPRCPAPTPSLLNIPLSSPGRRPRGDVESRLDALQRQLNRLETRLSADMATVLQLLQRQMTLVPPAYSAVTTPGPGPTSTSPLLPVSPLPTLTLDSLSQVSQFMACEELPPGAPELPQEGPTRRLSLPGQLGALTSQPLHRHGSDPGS

Structure (SMILES)	IC50 [µM]
O=C1COc2ccc(CNC34CCC(CCc5c(F)cnc6ccc(N7CCOCC7)nc56)(CC3)OC4)nc2N1	11.5

Test system: Staphylococcus aureus
Assay: Potency index, ratio of MIC for quinolone-resistant Staphylococcus aureus MS5935 to MIC for quinolone-[…]
Assay type: functional
Conditions: not given

Structure (SMILES)	Ratio
O=C1COc2ccc(CNC34CCC(CCc5c(F)cnc6ccc(N7CCOCC7)nc56)(CC3)OC4)nc2N1	<4

Test system: Staphylococcus aureus
Assay: Antimicrobial activity against Staphylococcus aureus Smith by micro broth dilution or agar based method
Assay type: functional
Conditions: Staphylococcus aureus, Smith; read-out: MIC

Structure (SMILES)	MIC [mg/L]
COc1ccc2ncc(F)c(CCC34CCC(NCc5ccc6c(n5)NC(=O)CO6)(CC3)CO4)c2n1	0.016 (≈ 0.0324 µM)
COc1cc(CCC23CCC(NCc4ccc5c(n4)NC(=O)CO5)(CC2)CO3)c2nc(OC)ccc2n1	4 (≈ 7.91 µM)
O=C1COc2ccc(CNC34CCC(CCc5c(F)cnc6cc(Cl)cnc56)(CC3)OC4)nc2N1	8 (≈ 16.1 µM)
O=C1COc2ccc(CNC34CCC(CCc5c(F)cnc6ccc(N7CCOCC7)nc56)(CC3)OC4)nc2N1	0.5 (≈ 0.911 µM)
O=C1COc2ccc(CNC34CCC(CCc5ccnc6cc(F)cnc56)(CC3)OC4)nc2N1	16 (≈ 34.5 µM)
COc1ccc2ncc(OC)c(CCC34CCC(NCc5ccc6c(n5)NC(=O)CO6)(CC3)CO4)c2n1	0.125 (≈ 0.247 µM)
N#Cc1ccc2ncc(F)c(CCC34CCC(NCc5ccc6c(n5)NC(=O)CO6)(CC3)CO4)c2n1	0.063 (≈ 0.129 µM)

Test system: Enterococcus faecium
Assay: Antimicrobial activity against VanA expressing vancomycin-resistant Enterococcus faecium by micro broth dilution or agar based method
Assay type: functional
Conditions: Enterococcus faecium; read-out: MIC

Structure (SMILES)	MIC [mg/L]
COc1ccc2ncc(F)c(CCC34CCC(NCc5ccc6c(n5)NC(=O)CO6)(CC3)CO4)c2n1	0.5 (≈ 1.01 µM)
COc1cc(CCC23CCC(NCc4ccc5c(n4)NC(=O)CO5)(CC2)CO3)c2nc(OC)ccc2n1	8 (≈ 15.8 µM)
O=C1COc2ccc(CNC34CCC(CCc5c(F)cnc6cc(Cl)cnc56)(CC3)OC4)nc2N1	32 (≈ 64.3 µM)
O=C1COc2ccc(CNC34CCC(CCc5c(F)cnc6ccc(N7CCOCC7)nc56)(CC3)OC4)nc2N1	8 (≈ 14.6 µM)
O=C1COc2ccc(CNC34CCC(CCc5ccnc6cc(F)cnc56)(CC3)OC4)nc2N1	32 (≈ 69 µM)
COc1ccc2ncc(OC)c(CCC34CCC(NCc5ccc6c(n5)NC(=O)CO6)(CC3)CO4)c2n1	4 (≈ 7.91 µM)
N#Cc1ccc2ncc(F)c(CCC34CCC(NCc5ccc6c(n5)NC(=O)CO6)(CC3)CO4)c2n1	2 (≈ 4.09 µM)
